# Laboratory results reported in patent publication US20230248706A1, “METHODS AND COMPOSITIONS FOR THE TREATMENT OF COVID-19 AND ASSOCIATED RESPIRATORY DISTRESS AND MULTI-ORGAN FAILURE, SEPSIS, ACUTE RESPIRATORY DISTRESS SYNDROME, AND CARDIOVASCULAR DISEASES” (priority 2020, published 2023).
# Columns and labels:
# LPS-challenged mice [1] = assay: Lung myeloperoxidase (MPO) activity after LPS challenge; type: in vivo, mouse
# Description: (§1) To induce endotoxemia, mice received a single dose of LPS (0.25-2.5 mg/kg BW, Escherichia coli 055:B5, Santa Cruz, St. Dallas, Tex.) by i.p. injection. The LPS dose was dependent on the aging of the mice (3-9 mo old, 2.5 mg/kg; 19-21 mo. old, 1.0 mg/kg; 25 mo. old, 0.25 mg/kg). All mice were anesthetized with ketamine/xylazine (100/5 mg/kg BW, i.p.) prior to tissue collection. For the survival study, mice were treated with a single dose of LPS (1.5 mg/kg, i.p.) and monitored for 7 days.
# Myeloperoxidase assay. Following perfusion free of blood, lung tissues were collected and homogenized in 50 mmol/L phosphate buffer. Homogenates were centrifuged at 15,000×g for 20 minutes at 4° C. The pellets were resuspended in phosphate buffer containing 0.5% hexadecyl trimethylammonium bromide and subjected to a cycle of freezing and thawing. Subsequently, the pellets were homogenized and the homogenates were centrifuged again. Absorbance was measured at 460 nm every 15 secs for 3 minutes and data expressed as ΔOD460/min/g lung tissue (26, 34).
# LPS-challenged mice [2] = assay: EBA extravasation assay (lung vascular permeability) after LPS challenge; type: in vivo, mouse; settings: for vascular repair (EBA assay): 96h post-LPS; for vascular repair (EBA flux): 72h post-LPS
# Description: as §1
# Vascular permeability assessment. The Evans blue dye-conjugated albumin (EBA) extravasation assay was performed as previously described (26, 34). Briefly, mice were retro-orbitally injected with EBA at a dose of 20 mg/kg BW at 30 minutes prior to tissue collection. Lungs were perfused free of blood with PBS, blotted dry and weighed. Next, lung tissues were homogenized in 1 ml PBS and incubated with 2 volumes of formamide at 60° C. for 18 hours. The homogenates were then centrifuged at 10,000×g for 30 minutes. The optical density of the supernatant was determined at 620 nm and 740 nm. The extravasated EBA in lung homogenate was presented as μg of Evans blue dye per g lung tissue.
# FoxM1 = assay: Quantitative RT-PCR of FoxM1 expression in lung after LPS challenge; type: in vivo, mouse
# Description: (§2) Molecular analysis. Total RNA was isolated using an RNeasy Mini kit including DNase I digestion (Qiagen, Valencia, Calif.). Following reverse transcription, quantitative RT-PCR analysis was performed using a sequence detection system (ABI ViiA 7 system; Life Technologies, Grand Island, N.Y.). The following primers sets were used for analysis: mouse FoxM1 primers, 5′-[…]-3′ (SEQ ID NO: 1) and 5′-[…]-3′ (SEQ ID NO: 2); mouse cyclophilin primers, 5′-[…]-3′ (SEQ ID NO: 3) and 5′-[…]-3′ (SEQ ID NO: 4). Primers for mouse Cdc25c, Ccna2, Ccnb1, Tnf, Il6, Nos2, and Icam1 were purchased from Qiagen. The mouse gene expression was normalized to cyclophilin.
# LPS-challenged mice [3] = assay: Survival after LPS challenge; type: in vivo, mouse; settings: LPS 1.5 mg/kg i.p., treated at 24 and 48h post-LPS
# Description: To induce endotoxemia, mice received a single dose of LPS (0.25-2.5 mg/kg BW, Escherichia coli 055:B5, Santa Cruz, St. Dallas, Tex.) by i.p. injection. […] All mice were anesthetized with ketamine/xylazine (100/5 mg/kg BW, i.p.) prior to tissue collection. […]
# pulmonary vascular ECs = assay: In vivo BrdU labeling of lung endothelial cell proliferation; design: species or system mouse; settings: aged mice, treated at 24 and 48h post-LPS
# Description: Cell proliferation. At 8 h prior to tissue collection, BrdU (Sigma-Aldrich, St Louis, Mo.) was injected i.p. into mice at 50 mg/kg BW. Mouse lung cryosections were stained overnight with anti-BrdU (1:3, BD Biosciences, San Jose, Calif.) and incubated with Alexa Fluo 488-conjugated secondary antibody (1:200, Life Technologies, Grand Island, N.Y.). Lung vascular ECs were immunostained with anti-vWF (1:300, Sigma-Aldrich, St Louis, Mo.) and anti-CD31 (1:100, BD Biosciences, San Jose, Calif.) antibodies at 4° C. then the sections were incubated with Alexa Fluor 594-conjugated secondary antibodies (1:200, Life Technologies, Grand Island, N.Y.). The nuclei were counterstained with DAPI (Life Technologies, Grand Island, N.Y.). Three consecutive cryosections from each mouse lung were examined, the average number of BrdU+ nuclei was used (24, 34).
# Cdc25c, Ccna2, and Ccnb1 = assay: Quantitative RT-PCR of FoxM1 target genes essential for cell cycle progression in lung; type: in vivo, mouse; settings: aged mice, treated at 24 and 48h post-LPS
# Description: as §2
# young adult mice = settings: 1 mg/kg i.p., young adult mice (8-10 weeks old), previous study; cited from earlier work
# pro-inflammatory genes = type: in vivo, mouse; settings: aged mice (21 mo. old), 25 mg/kg oral at 24h post-LPS (FIG. 13 legend)
# Description: as §2
# HIF-response element = assay: High-throughput screening of Prestwick library in stable cell line containing the HIF-response element; type: cell-based; settings: Prestwick Chemical Library of FDA-approved drugs (1280 compounds)
# [4] = cited from earlier work
# [5] = system: human lung microvascular ECs (HLMVECs); assay: Apoptosis (TUNEL) in senescent HLMVECs treated with TNF-α/CHX; settings: senescent HLMVECs at passage 16
# Description: (§3) (D) Quantification of ROS production. (E) Representative micrographs of TUNEL staining (green) of human lung ECs.
# (§4) To further understand the pathogenic role of aging-induced NOX2 in promoting inflammatory lung injury in aged mice, we cultured human lung microvascular ECs (HLMVECs) and passaged many times.
# [6] = system: human lung microvascular ECs (HLMVECs); assay: ROS production (DCF staining) in senescent HLMVECs treated with TNF-α/CHX; settings: senescent HLMVECs at passage 16, TNF-α and Cycloheximide (CHX) treatment
# Description: as §3, §4
# IL-6 = assay: Quantitative RT-PCR of IL-6 expression in lung after LPS challenge; type: in vivo, mouse
# Description: as §2
# HDAC = settings: cited from earlier work
# NADase = settings: cited from earlier work
# p53 = settings: in response to DNA damaging agents; cited from earlier work
# TNF-α = assay: Quantitative RT-PCR of TNF-α expression in lung after LPS challenge; type: in vivo, mouse; settings: aged mice (21 mo. old), DMOG at 12 or 24h post-LPS, 72h post-LPS
# Description: as §2
# [7] = young adult mice (3-5 mo. old), LPS 2.5 mg/kg i.p., 0.25, 0.5, and 5 mg/kg i.p. at 4h post-LPS, 24h post-LPS
# [8] = aged mice (21 mo. old), LPS 0.5 mg/kg i.p., 25 mg/kg oral at 24h post-LPS, 72h post-LPS
# [9] = aged mice (21.5 mos. old), LPS 2 mg/kg i.p., 120 mg/kg oral at 2 h post-LPS, 24h post-LPS
# [10] = aged WT mice (20 months), 7 mg/kg i.p. at 1 h prior to LPS, 72h post-LPS
# [11] = aged mice (21 mo. old), DMOG 8 mg/mouse i.p. at 12 or 24h post-LPS, 72h post-LPS
compound,measurement,setting,value
"Nc1ncn([C@H]2CC(O)[C@@H](CO)O2)c(=O)n1 (stereo in doubt) [Decitabine, 5-Aza-2′-deoxycytidine]",lung MPO activity,"LPS-challenged mice [1]; aged mice (21-22 mos. old), 0.2 mg/kg i.p. at 24 h and 48h post-LPS, 96h post-LPS",returned to basal levels
same,lung MPO activity,LPS-challenged mice [1]; [7],no effect
same,inflammation resolution (MPO assay),"LPS-challenged mice [1]; young adult mice (3 mos. old), 0.2 mg/kg i.p. at 24 and 48h post-LPS, 96h post-LPS",didn't promote
same,vascular repair (EBA assay),"LPS-challenged mice [2]; aged mice (21-22 mos. old), 0.2 mg/kg i.p. at 24 h and 48h post-LPS",normalized vascular repair
same,lung EBA flux,LPS-challenged mice [2]; [7],no effect
same,vascular repair (EBA assay),"LPS-challenged mice [2]; young adult mice (3 mos. old), 0.2 mg/kg i.p. at 24 and 48h post-LPS",didn't promote
same,FoxM1 expression,"FoxM1; aged mice, treated at 24 and 48h post-LPS, 72h post-LPS, compared to vehicle-treated mice",markedly induced
same,mice survived,"LPS-challenged mice [3]; aged (20-22 mos. old) WT mice, monitored for 96h",80%
same,survival of aged Foxm1 KO mice,LPS-challenged mice [3]; aged Foxm1 EC-specific knockout mice,no protective effects
same,pulmonary vascular EC proliferation (BrdU immunostaining),pulmonary vascular ECs,drastically increased
same,expression of FoxM1 target genes essential for cell cycle progression,"Cdc25c, Ccna2, and Ccnb1",markedly induced
same,effect on sepsis-induced inflammatory lung injury,young adult mice,no effects
Cc1nc(C(=O)NCC(=O)O)c(O)c2ccc(Oc3ccccc3)cc12 [FG-4592],MPO activity,LPS-challenged mice [1]; [8],inhibited MPO activity
same,vascular repair (EBA flux),"LPS-challenged mice [2]; aged mice (21 mo. old), LPS 0.5 mg/kg i.p., 25 mg/kg oral at 24h post-LPS",normalized vascular repair
same,FoxM1 expression,FoxM1; [8],induced FoxM1 expression
same,pro-inflammatory cytokine expression,pro-inflammatory genes,marked increase
COCCCOc1ccnc(C[S+]([O-])c2nc3ccccc3[nH]2)c1C (centres unmarked) [Rabeprazole],MPO activity,"LPS-challenged mice [1]; aged mice (22 mo. old), LPS 1.5 mg/kg i.p., treated at 6h and 24h post-LPS, 72h post-LPS",returned to levels seen in basal mice
same,drug-induced vascular repair (EBA) in Foxm1 EC KO mice,"LPS-challenged mice [2]; Foxm1 EC-specific knockout mice (3-5 mos. old), treated at 6h and 24h post-LPS, 52h post-LPS",inhibited
same,drug-induced vascular repair (EBA) in Hif1a KO mice,"LPS-challenged mice [2]; Hif1a EC-specific knockout mice (4 mos. old), treated at 6h and 24h post-LPS, 52h post-LPS",inhibited
same,increase of FoxM1 expression compared to either basal or LPS-treated mice,"FoxM1; aged mice (22 mo. old), treated at 6h and 24h post-LPS, 72h post-LPS",3-6 fold
same,increase of FoxM1 expression compared to either basal or LPS-treated mice,"FoxM1; young adult mice 3-5 mos. old, 18 mg/kg oral at 6h and 24h post-LPS, 56h post-LPS",3 fold
same,HIF activation in library screen,HIF-response element,activators
"Oc1ccc(/C=C/c2cc(O)cc(O)c2)cc1 [Resveratrol, trans-E-resveratrol]",solubility,[4],poor solubility
"CC(=O)N[C@@H](CS)C(=O)O [NAC, N-Acetylcysteine]",MPO activity,LPS-challenged mice [1]; [9],attenuated
same,TNF-α/CHX treatment-induced cell apoptosis,[5],markedly inhibited
same,ROS generation,[6],inhibited
same,expression of the proinflammatory gene 116,IL-6; [9],reduced to a level similar to young adult mice
NC(=O)C1CCCc2c1[nH]c1ccc(Cl)cc21 (centres unmarked) [Selisistat],lung MPO activity,LPS-challenged mice [1]; [10],returned to basal levels
same,IC50,HDAC,> 100 µM
same,FoxM1 expression,FoxM1; [10],reactivated FoxM1 expression
same,IC50,NADase,> 100 µM
same,p53 acetylation,p53,Enhances
Cl.Nc1ccc(/N=N/c2ccccc2)c(N)n1 [Phenazopyridine],vascular repair (EBA flux),"LPS-challenged mice [2]; aged mice (22 mo. old), LPS 1.5 mg/kg i.p., treated at 6h and 24h post-LPS",promote vascular repair
same,HIF activation in library screen,HIF-response element,activators
"COC(=O)CNC(=O)C(=O)OC [DMOG, dimethyoxalylglycine]",MPO activity,LPS-challenged mice [1]; [11],returned to basal levels
same,expression of TNF-α,TNF-α,markedly reduced
same,increase of FoxM1 expression compared to either basal or non-treated mice,FoxM1; [11],3 fold
same,expression of IL-6,"IL-6; aged mice (21 mo. old), DMOG at 12 or 24h post-LPS, 72h post-LPS",markedly reduced
